One experiment deals with T1, human CB2 (hCB2) (Homo sapiens, UniProt P34972).
T1 construct: (cDNA clone) CNR0200000
In words: 35S GTPγS binding assay, hCB2 agonist. It counts as biochemical. In short, it runs like this:
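Membranes (5 μg) from cells transfected with hCB2 cDNA in pcDNA3.1+ incubated with SPA beads, 0.1 nM [35S]GTPγS and 20 uM GDP in 50 mM HEPES pH 7.4, 100 mM NaCl, 5 mM MgCl2, 0.001% saponin, ± test compound. Incubation 90 min at room temperature; bound label read by scintillation counting.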
A general note: GTPγS resists hydrolysis and so accumulates on activated G proteins.

In a further experiment the target is T2, human CB2 receptors (Homo sapiens, UniProt P34972).
T2 construct: (cDNA clone) CNR0200000
T2 sequence (P34972 whole entry): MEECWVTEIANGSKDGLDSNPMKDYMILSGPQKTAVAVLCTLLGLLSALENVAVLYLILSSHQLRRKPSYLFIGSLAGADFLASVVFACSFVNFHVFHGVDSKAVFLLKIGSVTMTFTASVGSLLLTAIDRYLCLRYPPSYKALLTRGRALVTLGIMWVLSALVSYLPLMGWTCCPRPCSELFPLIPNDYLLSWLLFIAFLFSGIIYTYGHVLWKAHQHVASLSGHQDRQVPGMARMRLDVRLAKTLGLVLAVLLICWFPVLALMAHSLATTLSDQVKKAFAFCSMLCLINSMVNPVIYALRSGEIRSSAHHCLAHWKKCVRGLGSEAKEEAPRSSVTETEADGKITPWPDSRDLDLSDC
In words: cAMP assay in HEK-293 cells, hCB2 agonist. The experiment is classed as cell-based. An outline of the steps: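 HEK-293 cells stably expressing human CB2, suspended at 1,500,000 cells/mL in HBSS with 10 mM HEPES and 0.1% fatty-acid-free BSA, exposed to test compound plus forskolin (90 uM in the 3× compound solution) for 30 min at 37° C.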
(Changes in cAMP serve as a functional read-out for many G protein-coupled receptors.)

In experiment [1] the target is T3, recombinant human cannabinoid receptor CB1 (Homo sapiens, UniProt P21554).
T3 construct: (cDNA clone) CNR01L000
T3 sequence (P21554 whole entry): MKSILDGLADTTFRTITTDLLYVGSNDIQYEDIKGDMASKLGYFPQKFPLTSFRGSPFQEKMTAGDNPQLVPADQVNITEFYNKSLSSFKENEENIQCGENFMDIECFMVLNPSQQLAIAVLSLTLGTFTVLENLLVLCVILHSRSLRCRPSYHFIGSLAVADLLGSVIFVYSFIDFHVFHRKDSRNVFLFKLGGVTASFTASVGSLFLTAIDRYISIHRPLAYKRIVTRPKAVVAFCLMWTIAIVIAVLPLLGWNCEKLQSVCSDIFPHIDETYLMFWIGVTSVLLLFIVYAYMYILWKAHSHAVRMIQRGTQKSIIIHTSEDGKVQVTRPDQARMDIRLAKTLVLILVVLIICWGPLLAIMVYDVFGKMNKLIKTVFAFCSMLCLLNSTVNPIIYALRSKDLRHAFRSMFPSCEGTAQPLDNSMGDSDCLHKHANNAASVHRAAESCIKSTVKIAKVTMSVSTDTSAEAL
The experiment in a line: Cannabinoid receptor radioligand binding assay, [3H]-CP 55,940 displacement, hCB1. An outline of the steps: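 Membranes from HEK-293 cells stably expressing human CB1, 2-10 μg protein, incubated 90 min at room temperature with 0.5 nM [3H]-CP 55,940 in Tris-HCl pH 7.5, MgCl2, EDTA and 0.1% fatty-acid-free BSA. Bound radioactivity counted after rapid filtration; nonspecific binding defined with 1 μM unlabeled CP 55,940.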

T1 sequence (P34972 whole entry): as the sequence (P34972 whole entry) above

As a reminder, the EC50 is the concentration needed to bring the measured effect to its halfway point. High values mean a less potent agent, low ones a more potent agent. The term IC50 denotes the point on the concentration scale where inhibition reaches its midpoint. In the case of `C=Cn1c(C)cc2cc(C(=O)c3cccc(Cl)c3Cl)sc21` [Comp 29], the EC50 at human CB2 (hCB2) and at human CB2 receptors was 100 to 1000 nM each time. Also, the IC50 in experiment [1] was greater than 10000 nM.

For `Cc1cc2cc(C(=O)c3cccc(Cl)c3Cl)sc2n1CCN1CCOCC1` [Compound 1, (2,3-dichlorophenyl)(5-methyl-6-(2-morpholinoethyl)-6H-thieno[2,3-b]pyrrol-2-yl)methanone], the EC50 at human CB2 (hCB2) and at human CB2 receptors was less than 100 nM throughout. For the same compound, the IC50 in experiment [1] was 100 to 1000 nM.

For the compound `CCCn1c(C)cc2cc(C(=O)c3cccc(Cl)c3Cl)sc21` [Compound 3, (2,3-Dichlorophenyl)(5-methyl-6-propyl-6H-thieno[2,3-b]pyrrol-2-yl)methanone], the EC50 on human CB2 (hCB2) and on human CB2 receptors was less than 100 nM in each case. The IC50 in experiment [1] is 1000 to 10000 nM.

For the compound `Cc1cc2cc(C(=O)c3ccccc3Cl)sc2n1CCN1CCOCC1` [Compound 5, (2-Chlorophenyl)(5-methyl-6-(2-morpholinoethyl)-61-1-thieno[2,3-b]pyrrol-2-yl)methanone], the EC50 at human CB2 (hCB2) and on human CB2 receptors was less than 100 nM in each case. For the same compound, the IC50 in experiment [1] lay within 100 to 1000 nM.

On to `Cc1cc2cc(C(=O)c3ccc(Cl)cc3)sc2n1CCN1CCOCC1` [Compound 6, (4-Chlorophenyl)(5-methyl-6-(2-morpholinoethyl)-6H-thieno[2,3-b]pyrrol-2-yl)methanone], for which the EC50 at human CB2 (hCB2) and at human CB2 receptors was less than 100 nM in each case. Moreover, the IC50 in experiment [1] lay within 1000 to 10000 nM.

On to `Cc1cc2cc(C(=O)c3cccc(F)c3F)sc2n1CCN1CCOCC1` [Compound 8, (2,3-Difluorophenyl)(5-methyl-6-(2-morpholinoethyl)-6H-thieno[2,3-b]pyrrol-2-yl)methanone], for which the EC50 is 100 to 1000 nM on human CB2 (hCB2) and less than 100 nM at human CB2 receptors. Moreover, the IC50 in experiment [1] is 1000 to 10000 nM.

Take `Cc1cc2cc(C(=O)c3ccc(Cl)c(Cl)c3)sc2n1CCN1CCOCC1` [Compound 9, (3,4-Dichlorophenyl)(5-methyl-6-(2-morpholinoethyl)-6H-thieno[2,3-b]pyrrol-2-yl)methanone]: the results for the EC50 at human CB2 (hCB2) and at human CB2 receptors were 1000 to 10000 nM and 100 to 1000 nM, respectively. For the same compound, the IC50 in experiment [1] fell in the range of 1000 to 10000 nM.

As for `Cc1cc2cc(C(=O)c3cccc4c3OCC4)sc2n1CCN1CCOCC1` [Compound 11, (2,3-Dihydrobenzofuran-7-yl)(5-methyl-6-(2-morpholinoethyl)-6H-thieno[2,3-b]pyrrol-2-yl)methanone], the EC50 on human CB2 (hCB2) and on human CB2 receptors was less than 100 nM in each case. For the same compound, the IC50 in experiment [1] fell in the range of 100 to 1000 nM.

As for `COc1ccccc1C(=O)c1cc2cc(C)n(CCN3CCOCC3)c2s1` [Compound 13, (2-Methoxyphenyl)(5-methyl-6-(2-morpholinoethyl)-6H-thieno[2,3-b]pyrrol-2-yl)methanone], the EC50 on human CB2 (hCB2) and on human CB2 receptors was less than 100 nM throughout. The IC50 in experiment [1] was in the range of 100 to 1000 nM.

Consider `Cc1cc2cc(C(=O)c3ccccc3OC(F)(F)F)sc2n1CCN1CCOCC1` [Compound 15, (5-Methyl-6-(2-morpholinoethyl)-6H-thieno[2,3-b]pyrrol-2-yl)(2-(trifluoromethoxy)phenyl)methanone], for which the EC50 at human CB2 (hCB2) and at human CB2 receptors was less than 100 nM in each case. Besides, in experiment [1], the IC50 was less than 100 nM.

On to `Cc1cc2cc(C(=O)c3cccnc3Cl)sc2n1CCN1CCOCC1` [Compound 17, (2-Chloropyridin-3-yl)(5-methyl-6-(2-morpholinoethyl)-6H-thieno[2,3-b]pyrrol-2-yl)methanone], for which the concentration giving a half-maximal response (EC50) on human CB2 (hCB2) is 100 to 1000 nM; at human CB2 receptors, less than 100 nM. Besides, the IC50 in experiment [1] was greater than 10000 nM.

Consider `Cc1cc2cc(C(=O)c3cccc(Cl)c3Cl)sc2n1CCC1CCOCC1` [Compound 18, (2,3-Dichlorophenyl)(5-methyl-6-(2-(tetrahydro-2H-pyran-4-yl)ethyl)-6H-thieno[2,3-b]pyrrol-2-yl)methanone], for which the EC50 on human CB2 (hCB2) and on human CB2 receptors was less than 100 nM in each case. The IC50 in experiment [1] was in the range of 100 to 1000 nM.

Consider `COCCn1c(C)cc2cc(C(=O)c3cccc(Cl)c3Cl)sc21` [Compound 21, (2,3-Dichlorophenyl)(6-(2-methoxyethyl)-5-methyl-6H-thieno[2,3-b]pyrrol-2-yl)methanone], for which the EC50 on human CB2 (hCB2) and at human CB2 receptors was less than 100 nM in each case. Also, the IC50 in experiment [1] lay within 100 to 1000 nM.

As to `Cc1cc2cc(C(=O)c3cccc(Cl)c3Cl)sc2n1CCN1CCCCC1` [Compound 23, (2,3-Dichlorophenyl)(5-methyl-6-(2-(piperidin-1-yl)ethyl)-6H-thieno[2,3-b]pyrrol-2-yl)methanone], the EC50 at human CB2 (hCB2) and on human CB2 receptors was less than 100 nM in each case. Moreover, the IC50 in experiment [1] was in the range of 100 to 1000 nM.

For the compound `Cc1cc2cc(C(=O)c3cccc(Cl)c3Cl)sc2n1CC1CCCCN1C` (stereo not drawn) [Compound 24, (2,3-Dichlorophenyl)(5-methyl-6((1-methylpiperidin-2-yl)methyl)-6H-thieno[2,3-b]pyrrol-2-yl)methanone], the EC50 on human CB2 (hCB2) and at human CB2 receptors was less than 100 nM in each case. Also, in experiment [1], the IC50 lay within 100 to 1000 nM.

In the case of `Cc1c(Cl)c2cc(C(=O)c3cccc(Cl)c3Cl)sc2n1CCN1CCOCC1` [Compound 27, (4-chloro-5-methyl-6-(2-morpholinoethyl)-6H-thieno[2,3-b]pyrrol-2-yl)(2,3-dichlorophenyl)methanone], the EC50 at human CB2 (hCB2) and on human CB2 receptors was less than 100 nM throughout. In addition, the IC50 in experiment [1] was less than 100 nM.

Turning to `Cc1cc2cc(C(=O)c3cccc(Cl)c3Cl)sc2n1CCN1CCCC1` [Compound 28, (2,3-Dichlorophenyl)(5-methyl-6-(2-(pyrrolidin-1-yl)ethyl)-6H-thieno[2,3-b]pyrrol-2-yl)methanone], the EC50 on human CB2 (hCB2) and on human CB2 receptors was less than 100 nM each time. Besides, the IC50 in experiment [1] fell in the range of 100 to 1000 nM.

As for `Cc1cc2cc(C(=O)c3cc(Cl)ccc3Cl)sc2n1CCN1CCOCC1` [Compound 35, (2,5-Dichlorophenyl)(5-methyl-6-(2-morpholinoethyl)-6H-thieno[2,3-b]pyrrol-2-yl)methanone], the EC50 at human CB2 (hCB2) and on human CB2 receptors was less than 100 nM in each case. In addition, the IC50 in experiment [1] was 100 to 1000 nM.

On to `COc1ccc(C(=O)c2cc3cc(C)n(CCN4CCOCC4)c3s2)cc1` [Compound 36, (4-methoxyphenyl)(5-methyl-6-(2-morpholinoethyl)-6H-thieno[2,3-b]pyrrol-2-yl)methanone], for which the EC50 at human CB2 (hCB2) and on human CB2 receptors was less than 100 nM in each case. For the same compound, the IC50 in experiment [1] fell in the range of 1000 to 10000 nM.

As to `Cc1cc2cc(C(=O)c3cccc(Cl)c3Cl)sc2n1S(=O)(=O)N(C)C` [Compound 41, 2-(2,3-Dichlorobenzoyl)-N,N,5-trimethyl-6H-thieno[2,3-b]pyrrole-6-sulfonamide], the EC50 at human CB2 (hCB2) and at human CB2 receptors was less than 100 nM in each case. Further, the IC50 in experiment [1] lay in the range of 100 to 1000 nM.

With `Cc1cc2cc(C(=O)c3ccccc3N)sc2n1CCN1CCOCC1` [Compound 48, (2-Aminophenyl)(5-methyl-6-(2-morpholinoethyl)-6H-thieno[2,3-b]pyrrol-2-yl)methanone], the EC50 on human CB2 (hCB2) and at human CB2 receptors was less than 100 nM in each case. Moreover, the IC50 in experiment [1] was greater than 10000 nM.

In the case of `COCCn1c(C)cc2cc(C(=O)c3ccc(OC)cc3)sc21` [Compound 49, (6-(2-Methoxyethyl)-5-methyl-6H-thieno[2,3-b]pyrrol-2-yl)(4-methoxyphenyl)methanone], the half-maximal effective concentration (EC50) on human CB2 (hCB2) and at human CB2 receptors was 100 to 1000 nM in each case. For the same compound, the IC50 in experiment [1] was greater than 10000 nM.

For `COc1ccc(C(=O)c2cc3cc(C)n(CCN4CCOC4=O)c3s2)cc1` [Compound 50, 3-(2-(2-(4-Methoxybenzoyl)-5-methyl-6H-thieno[2,3-b]pyrrol-6-yl)ethyl)oxazolidin-2-one], the EC50 is 1000 to 10000 nM on human CB2 (hCB2) and less than 100 nM at human CB2 receptors. Also, in experiment [1], the IC50 was greater than 10000 nM.

As to `CCOc1ccc(C(=O)c2cc3cc(C)n(CCN4CCOCC4)c3s2)cc1` [Compound 55, (4-Ethoxyphenyl)(5-methyl-6-(2-morpholinoethyl)-6H-thieno[2,3-b]pyrrol-2-yl)methanone], the EC50 at human CB2 (hCB2) and at human CB2 receptors was less than 100 nM each time. Further, the IC50 in experiment [1] is 1000 to 10000 nM.

With `Cc1cc2cc(C(=O)c3ccc(N(C)C)cc3)sc2n1CCN1CCOCC1` [Compound 59, (4-(Dimethylamino)phenyl)(5-methyl-6-(2-morpholinoethyl)-6H-thieno[2,3-b]pyrrol-2-yl)methanone], the EC50 on human CB2 (hCB2) and on human CB2 receptors was 100 to 1000 nM each time. Also, the IC50 in experiment [1] is greater than 10000 nM.

Turning to `Cc1cc2cc(C(=O)c3ccc(F)cc3Cl)sc2n1CCN1CCOCC1` [Compound 64, (2-Chloro-4-fluorophenyl)(5-methyl-6-(2-morpholinoethyl)-6H-thieno[2,3-b]pyrrol-2-yl)methanone], the EC50 on human CB2 (hCB2) and on human CB2 receptors was less than 100 nM throughout. Moreover, the IC50 in experiment [1] lay within 1000 to 10000 nM.

Turning to `Cc1cc2cc(C(=O)c3ccc(OC(F)(F)F)cc3)sc2n1CCN1CCOCC1` [Compound 65, (5-Methyl-6-(2-morpholinoethyl)-6H-thieno[2,3-b]pyrrol-2-yl)(4-(trifluoromethoxy)phenyl)methanone], the EC50 at human CB2 (hCB2) and at human CB2 receptors was 100 to 1000 nM each time. Also, the IC50 in experiment [1] is 1000 to 10000 nM.

With `COc1ccc(C(=O)c2cc3cc(C)n(CCN4CCOCC4)c3s2)c(F)c1` [Compound 68, (2-Fluoro-4-methoxyphenyl)(5-methyl-6-(2-morpholinoethyl)-6H-thieno[2,3-b]pyrrol-2-yl)methanone], the EC50 at human CB2 (hCB2) and on human CB2 receptors was less than 100 nM throughout. Further, the IC50 in experiment [1] was 1000 to 10000 nM.

These data come from patent US20130029970A1 (priority 2009, published 2013).
